Reference: EP4775582A1, “MACROCYCLIC COMPOUND AND ANTIBODY-DRUG CONJUGATE THEREOF” (Genfleet Therapeutics (Shanghai) Inc., priority 2023, dated 2025)

Key:
Type in all cases: cell-based, human
AsPC-1 p-ERK = assay: Cell p-ERK assay (HTRF), AsPC-1 cells; conditions: Homo sapiens, ASPC1, 3 h, read-out: AsPC-1 p-ERK IC50(nM)
Description: (§1) The cells were digested with trypsin (containing EDTA), collected in their corresponding complete media, and counted. The density of the cell suspensions was adjusted with their corresponding complete media, and 10000 AsPC-1 cells or 20000 NCI-H441 cells per well were seeded into a 96-well cell culture plate, with the volume of the medium in each well being 80 µL. The cell culture plate was incubated in an incubator at 37 °C with 5% CO2 overnight. […] On the day after cell seeding, 20 µL of the 5× compound stock solution was added to each cell culture well. […] In addition to the compound-treated wells described above, cell-containing DMSO control wells were also set. A complete medium containing 0.5% DMSO was added at 20 µL/well. After the mixture was well mixed, the culture plate was incubated in the incubator at 37 °C with 5% CO2 for another 3 h. The medium was then removed from the culture wells, and 50 µL of cell lysis buffer (from Advance ERK phospho-T202/Y204 kit) was added to each well. The mixture was well mixed and incubated for 30 min. Then, 16 µL of the mixture was transferred to a white-bottomed, opaque 96-well assay plate, and separately, 16 µL of cell lysis buffer was added to additional wells (serving as blank wells) in the assay plate. After the transfer was completed, 4 µL of p-ERK HTRF antibody mixture (from Advance ERK phospho-T202/Y204 kit) was added to each well of the assay plate, followed by a 4-hour incubation. […] Using an XLfit software, the IR (%) values were plotted against the logarithm of the compound concentrations, and the dose-response curves were fitted using the four-parameter method to calculate the IC50 values.

H441 p-ERK = assay: Cell p-ERK assay (HTRF), NCI-H441 cells; conditions: NCI-H441 cells (KRAS G12V), 3 h incubation
Description: as §1

AsPC-1 cells = assay: 3D cell proliferation assay (CellTiter Glo-3D), AsPC-1; conditions: Homo sapiens, ASPC1, 120 h, read-out: AsPC-1 AP IC50(nM)
Description: (§2) The cells were digested with trypsin (containing EDTA), collected in their respective low-serum complete media containing 2% FBS (for MIA Paca-2 cell culture: DMEM + 2% FBS + 0.5% Horse serum + 1% PS), and counted. After the cell density was adjusted as required, 200 MIA PaCa-2 cells, 800 AsPC-1 cells, 800 NCI-H441 cells, or 400 NCI-H1975 cells per well were seeded into a 384-well cell culture plate, with the volume of the medium in each well being 45 µL. The cell culture plate was incubated in an incubator at 37 °C with 5% CO2 overnight. […] On the day after cell seeding, 5 µL of the 10× compound stock solution was added to each cell culture well. […] In addition to the compound-treated wells described above, cell-containing DMSO control wells (with 5 µL of the complete medium containing 1% DMSO added to each well) and cell-free medium control wells (containing 50 µL of the complete medium with 2% FBS) were also set. The culture plate was incubated in an incubator at 37 °C with 5% CO2 for another 5 days, and then 30 µL of CellTiter-Glo working solution was added to each well. The mixture was well mixed, incubated for 30 min, left to stand at room temperature for 30 min, and then transferred to a white-bottomed, opaque 384-well assay plate at 40 µL/well. […] Using an XLfit software, the IR (%) values were plotted against the logarithm of the compound concentrations, and the dose-response curves were fitted using the four-parameter method to calculate the IC50 values.

NCI-H441 cells = assay: 3D cell proliferation assay (CellTiter Glo-3D), NCI-H441; conditions: Homo sapiens, 120 h, NCI-H441 cells (KRAS G12V), 2% FBS, 5 days, read-out: H441 AP IC50
Description: as §2

Structure (SMILES)	IC50 (AsPC-1 p-ERK)	IC50 (H441 p-ERK; Homo sapiens)	IC50 (AsPC-1 cells)	IC50 (NCI-H441 cells)	IC50 (H441 p-ERK)
CCn1c(-c2cc(C#CCN3CCS(=O)(=O)CC3)cnc2[C@H](C)OC)c2c3cc(ccc31)-c1csc(n1)C[C@H](NC(=O)[C@@H](NC)C(C)C)C(=O)N1CCC[C@H](N1)C(=O)OCC(C)(C)C2 (atropisomer, axis not shown) [Compound Z4, (2S)-N-((6^3S,4S,Z)-1^2-(5-(3-(1,1-dioxidothiomorpholin-4-yl)prop-1-yn-1-yl)-2-((S)-1-methoxyethyl)pyridin-3-yl)-1^1-ethyl-10,10-dimethyl-5,7-dioxo-6^1,6^2,6^3,6^4,6^5, 6^6-hexahydro-1^1H-8-oxa-2(4,2)-thiazola-1(5,3)-indola-6(1,3)-pyridazinacycloundecaphane-4-yl)-3-methyl-2-(methylamino)butanamide]	0.52 nM	0.53 nM	–	–	–
COCCn1c(-c2cc(C#CCN3CCC(C#N)(CO)CC3)cnc2[C@H](C)OC)c2c3cc(ccc31)-c1csc(n1)C[C@H](NC(=O)[C@H]1[C@@H]3COC[C@@H]31)C(=O)N1CCC[C@H](N1)C(=O)OCC(C)(C)C2 (atropisomer, axis not shown) [Compound Z28, (1R,5S,6r)-N-((6^3S,4S,Z)-1^2-(5-(3-(4-cyano-4-hydroxymethylpiperidin-1-yl)prop-1-yn-1-yl)-2-((S)-1-methoxyethyl)pyridin-3-yl)-1^1-(methoxyethyl)-10,10-dimethyl-5,7-dioxo-6^1,6^2,6^3,6^4,6^5,6^6-hexahydro-1^1H-8-oxa-2(4,2)-thiazola-1(5,3)-indola-6(1,3)-pyridazinacycloundecaphane-4-yl)-3-oxabicyclo[3.1.0]hexane-6-carboxamide]	0.42 nM	0.48 nM	0.37 nM	0.4 nM	–
COCCn1c(-c2cc(C#CCN3CCN(C(=O)CO)CC3)cnc2[C@H](C)OC)c2c3cc(ccc31)-c1csc(n1)C[C@H](NC(=O)[C@H]1[C@@H]3COC[C@@H]31)C(=O)N1CCC[C@H](N1)C(=O)OCC(C)(C)C2 (atropisomer, axis not shown) [Compound Z31, (1R,5S,6r)-N-((6^3S,4S,Z)-1^2-(5-(3-(4-(2-hydroxyacetyl)piperazin-1-yl)prop-1-yn-1-yl)-2-((S)-1-methoxyethyl)pyridin-3-yl)-1^1-(methoxyethyl)-10,10-dimethyl-5,7-dioxo-6^1,6^2,6^3,6^4,6^5,6^6-hexahydro-1^1H-8-oxa-2(4,2)-thiazola-1(5,3)-indola-6(1,3)-pyridazinacycloundecaphane-4-yl)-3-oxabicyclo[3.1.0]hexane-6-carboxamide]	–	2.39 nM	–	–	–
CCn1c(-c2cc(C#CCN3CCCOCC3)cnc2[C@H](C)OC)c2c3cc(ccc31)-c1csc(n1)C[C@H](NC1=NOC(C)(CC)C1)C(=O)N1CCC[C@H](N1)C(=O)OCC(C)(C)C2 (atropisomer, axis not shown) [Compound Z173, (6^3S,4S,Z)-1^2-(5-(3-(1,4-oxazepan-4-yl)prop-1-yn-1-yl)-2-((S)-1-methoxyethyl)pyridin-3-yl)-1^1-ethyl-10,10-dimethyl-4-((5-ethyl-5-methyl-4,5-dihydroisoxazol-3-yl)amino)-6^1,6^2,6^3,6^4,6^5,6^6-hexahydro-1^1H-8-oxa-2(4,2)-thiazola-1(5,3)-indola-6(1,3)-pyridazinacycloundecaphane-5,7-dione]	–	3.03 nM	–	–	–
CCn1c(-c2cc(C#CCN3CCCOCC3)cnc2[C@H](C)OC)c2c3cc(ccc31)-c1csc(n1)C[C@H](NC1=NOC3(CCOCC3)C1)C(=O)N1CCC[C@H](N1)C(=O)OCC(C)(C)C2 (atropisomer, axis not shown) [Compound Z175, (6^3S,4S,Z)-1^2-(5-(3-(1,4-oxazepan-4-yl)prop-1-yn-1-yl)-2-((S)-1-methoxyethyl)pyridin-3-yl)-4-((1,8-dioxa-2-azaspiro[4.5]dec-2-en-3-yl)amino)-1^1-ethyl-10,10-dimethyl-6^1,6^2,6^3,6^4,6^5,6^6-hexahydro-1^1H-8-oxa-2(4,2)-thiazola-1(5,3)-indola-6(1,3)-pyridazinacycloundecaphane-5,7-dione]	6.03 nM	2.61 nM	–	–	–
CCn1c(-c2cc(C#CCN3CCS(=O)(=O)CC3)cnc2[C@H](C)OC)c2c3cc(ccc31)-c1csc(n1)C[C@H](NC(=O)[C@@H](N)C1CCCC1)C(=O)N1CCC[C@H](N1)C(=O)OCC(C)(C)C2 (atropisomer, axis not shown; (Ra)) [Compound Z14, (2S)-2-amino-2-cyclopentyl-N-((6^3S,4S,Z)-(Ra)-1^2-(5-(3-(1,1-dioxidothiomorpholino)prop-1-yn-1-yl)-2-((S)-1-methoxyethyl)pyridin-3-yl)-1^1-ethyl-10,10-dimethyl-5,7-dioxo-6^1,6^2,6^3,6^4,6^5,6^6-hexahydro-1^1H-8-oxa-2(4,2)-thiazola-1(5,3)-indola-6(1,3)-pyridazinacycloundecaphane-4-yl)acetamide]	0.45 nM	0.41 nM	–	–	–
CCn1c(-c2cc(C#CCN3CCS(=O)(=O)CC3)cnc2[C@H](C)OC)c2c3cc(ccc31)-c1cc(N)cc(c1)C[C@H](NC(=O)C(C(C)C)N(C)C(=O)[C@@H]1CN(C(=O)OC)C[C@@H]1C)C(=O)N1CCC[C@H](N1)C(=O)OCC(C)(C)C2 (atropisomer, axis not shown; (Ra)) [Compound Z62]	–	–	–	–	3.19 nM
CCn1c(-c2cc(C#CCN3CCCOCC3)cnc2[C@H](C)OC)c2c3cc(ccc31)-c1csc(n1)C[C@H](NC1=NOC(C)(C)C1)C(=O)N1CCC[C@H](N1)C(=O)OCC(C)(C)C2 (atropisomer, axis not shown; (Ra)) [Compound Z172-1, (6^3S,4S,Z)-(Ra)-1^2-(5-(3-(1,4-oxazepan-4-yl)prop-1-yn-1-yl)-2-((5)-1-methoxyethyl)pyridin-3-yl)-1^1-ethyl-10,10-dimethyl-4-((5,5-dimethyl-4,5-dihydroisoxazol-3-yl)amino)-6^1,6^2,6^3,6^4,6^5,6^6-hexahydro-1^1H-8-oxa-2(4,2)-thiazola-1(5,3)-indola-6(1,3)-pyridazinacycloundecaphane-5,7-dione]	5.8 nM	2.17 nM	–	–	–
CCn1c(-c2cc(C#CCN3CCCOCC3)cnc2[C@H](C)OC)c2c3cc(ccc31)-c1csc(n1)C[C@H](NC1=NOC(C)(C(C)C)C1)C(=O)N1CCC[C@H](N1)C(=O)OCC(C)(C)C2 (atropisomer, axis not shown; (Ra)) [Compound Z280, (6^3S,4S,Z)-(Ra)-1^2-(5-(3-(1,4-oxazepan-4-yl)prop-1-yn-1-yl)-2-((S)-1-methoxyethyl)pyridin-3-yl)-1^1-ethyl-10,10-dimethyl-4-((5-isopropyl-5-methyl-4,5-dihydroisoxazol-3-yl)amino)-6^1,6^2,6^3,6^4,6^5,6^6-hexahydro-1^1H-8-oxa-2(4,2)-thiazola-1(5,3)-indola-6(1,3)-pyridazinacycloundecaphane-5,7-dione]	–	1.43 nM	–	–	–
CCn1c(-c2cc(C#CCN3CCCOCC3)cnc2[C@H](C)OC)c2c3cc(ccc31)-c1csc(n1)C[C@H](NC1=NOC(C)(C3CC3)C1)C(=O)N1CCC[C@H](N1)C(=O)OCC(C)(C)C2 (atropisomer, axis not shown; (Ra)) [Compound Z281, (6^3S,4S,Z)-(Ra)-1^2-(5-(3-(1,4-oxazepan-4-yl)prop-1-yn-1-yl)-2-((S)-1-methoxyethyl)pyridin-3-yl)-1^1-ethyl-10,10-dimethyl-4-((5-cyclopropyl-5-methyl-4,5-dihydroisoxazol-3-yl)amino)-6^1,6^2,6^3,6^4,6^5,6^6-hexahydro-1^1H-8-oxa-2(4,2)-thiazola-1(5,3)-indola-6(1,3)-pyridazinacycloundecaphane-5,7-dione]	–	3.04 nM	4.87 nM	3 nM	–
